Values joined by “and” are separate entries in the source; they are usually repeats but may differ in a detail not shown here. Equal entries are not always repeated. “Also recorded” adds a separate entry of the source.
System: TMHT (Thy-1 Mutated Human Tau) mice
Assay: SysQuant analysis of protein and phosphorylation changes in brains of TMHT mice treated with CK1d inhibitors
Type: in vivo, mouse
Settings: for Mouse brain Log 2 Ck1 inhibitor: 2′,3′-cyclic-nucleotide 3′-phosphodiesterase / Mouse brain Log 2 Ck1 inhibitor: phosphatase 1 regulatory subunit 14A / effect of treatment on protein phosphatase 1 regulatory subunit 14A level in mouse brain (in words) / effect of treatment on 2′,3′-cyclic-nucleotide 3′-phosphodiesterase level in mouse brain (in words): 30 mg/kg; for effect of treatment on protein phosphatase 1 regulatory subunit 14A level in mouse brain (in words) / effect of treatment on 2′,3′-cyclic-nucleotide 3′-phosphodiesterase level in mouse brain (in words): TMHT model, treated orally 30 mg/kg; for effect of treatment on protein phosphatase 1 regulatory subunit 14A level in mouse brain (in words): versus vehicle alone (FIG. 5B); for effect of treatment on 2′,3′-cyclic-nucleotide 3′-phosphodiesterase level in mouse brain (in words): versus vehicle alone (FIG. 6B); for number of human tau peptides significantly (p<0.05) regulated in the hippocampi of treated mice: of 124 unique quantified peptides from human tau, 30 mg/kg orally
Procedure: Starting at 8.5 months (±2 weeks) of age, TMHT mice received CK1d inhibitors 2-Methyl-amino-3-[(4-fluorophenyl)carbonyl]indolizine-1-carboxamide (PS278-05), 5-(1,3-benzoxazol-2-yl)-4-(pyridine-4-yl)pyrimidin-2-amine (PS110), compound PF4800567 (3-[(3-Chlorophenoxy)methyl]-1-(tetrahydro-2H-pyran-4-yl)-1H-pyrazolo[3,4-d]pyrimidin-4-amine; Tocris®) or vehicle (0.5% w/v methylcellulose) for 8 weeks (54 applications) at a dosage of 30 mg/kg body weight, orally via gavage.
In total 48 animals were used and allocated to 4 treatment groups.
Brain samples were collected within 10 minutes of euthanasia, washed in ice cold saline, transferred to a clean Eppendorf tube and immediately frozen in liquid nitrogen.
One hippocampus sample (left or right) from each of three animals in each of the vehicle, PS110 and PS278-05 groups were selected for analysis by SysQuant. A pool of all nine samples was also prepared as a reference channel. All TMT® labelling, mixing and mass spectrometry and bioinformatics studies were performed essentially as described in Section 4.1. For peptide and protein identification the UniProtKB mouse database was used, supplemented by inclusion of all human tau isoform entries.
All protein identification, peptide sequence, phosphorylation site information along with quantitative values and biological information relating to the peptide, protein and phosphorylation sites were assembled in a Microsoft Excel file (QuantSheet) to allow structured data analysis based on fold-change, significance, biological function and cellular localisation.
Similarly, the expression levels of total tau and for each phosphorylated serine, threonine and tyrosine amino acid in mouse brains following treatment with vehicle control or the CK1d inhibitors PS278-05 and PS110 were calculated.
All peptides that matched the human MAPT (P10636; SEQ ID NO:29) UniProt sequence and/or the mouse MAPT (P10637) were exported into a separate Microsoft Excel sheet. Ion intensity values for each phosphopeptide were summed and the average calculated for each treatment group (Vehicle control, PS110, PS278-05).

[1] = TMHT mice, hippocampus, 30 mg/kg orally via gavage, 8 weeks

With Nc1ncc(-c2nc3ccccc3o2)c(-c2ccncc2)n1 [PS110, 5-(1,3-benzoxazol-2-yl)-4-(pyridin-4-yl)pyrimidin-2-amine] the “Mouse brain Log 2 Ck1 inhibitor: Actin, alpha cardiac muscle 1” value [1] was 0.58, the “Mouse brain Log 2 Ck1 inhibitor: Antithrombin-III” value [1] was 0.57 and the “Mouse brain Log 2 Ck1 inhibitor: BH3-interacting domain death agonist” value [1] was −0.53. For the same compound, the “Mouse brain Log 2 Ck1 inhibitor: Catenin delta-1” value [1] was −2.26, the “Mouse brain Log 2 Ck1 inhibitor: Clathrin light chain B” value [1] was 0.70 and the “Mouse brain Log 2 Ck1 inhibitor: Fibrinogen gamma chain” value [1] was 1.01. The “Mouse brain Log 2 Ck1 inhibitor: GMP reductase 1” value [1] was 0.68, the “Mouse brain Log 2 Ck1 inhibitor: Guanine nucleotide-binding protein G(q) subunit alpha” value [1] was 0.82 and the “Mouse brain Log 2 Ck1 inhibitor: Insulin-like growth factor-binding protein” value [1] was −0.53. For the same compound, the “Mouse brain Log 2 Ck1 inhibitor: KxDL motif-containing protein 1” value [1] was −0.58, the “Mouse brain Log 2 Ck1 inhibitor: Myelin-associated oligodendrocyte basic protein” value [1] was 0.84 and the “Mouse brain Log 2 Ck1 inhibitor: Neutral alpha-glucosidase AB” value [1] was 0.52. The “Mouse brain Log 2 Ck1 inhibitor: Nuclear pore complex protein Nup155” value [1] was −0.53, the “Mouse brain Log 2 Ck1 inhibitor: Protein KIAA1045” value [1] was −0.63 and the “Mouse brain Log 2 Ck1 inhibitor: Secernin-2” value [1] was −0.76. The “Mouse brain Log 2 Ck1 inhibitor: Serum albumin” value [1] was 0.69, the “Mouse brain Log 2 Ck1 inhibitor: Short-chain specific acyl-CoA dehydrogenase, mitochondrial” value [1] was 0.54 and the “Mouse brain Log 2 Ck1 inhibitor: Syntaphilin” value [1] was −0.71. For the same compound, the “Mouse brain Log 2 Ck1 inhibitor: Transmembrane protein 119” value [1] was −0.66, the “Mouse brain Log 2 Ck1 inhibitor: cAMP-dependent protein kinase type 1” value [1] was 0.53 and the “Mouse brain Log 2 Ck1 inhibitor: 2′,3′-cyclic-nucleotide 3′-phosphodiesterase” value [1] was 0.63 and 0.57. The “Mouse brain Log 2 Ck1 inhibitor: phosphatase 1 regulatory subunit 14A” value [1] was 0.71 and 0.69, the “effect of treatment on protein phosphatase 1 regulatory subunit 14A level in mouse brain (in words)” value was “altering the concentration or amount; also recorded: upregulated” and the “effect of treatment on protein phosphatase 1 regulatory subunit 14A level in mouse brain (in words)” value (listed as 5-(1,3-benzoxazol-2-yl)-4-(pyridine-4-yl)pyrimidin-2-amine) was “up-regulation”. For the same compound, the “effect of treatment on 2′,3′-cyclic-nucleotide 3′-phosphodiesterase level in mouse brain (in words)” value was “altering the concentration or amount; also recorded: upregulated” and the “number of human tau peptides significantly (p<0.05) regulated in the hippocampi of treated mice” value (TMHT mice, 8 weeks) was 37.

In the case of NC(=O)c1c(N)c(C(=O)c2ccc(F)cc2)n2ccccc12 [PS278, 2-amino-3-[(4-fluorophenyl)carbonyl]indolizine-1-carboxamide], the “Mouse brain Log 2 Ck1 inhibitor: BH3-interacting domain death agonist” value [1] is reported as −0.56, the “Mouse brain Log 2 Ck1 inhibitor: Catenin delta-1” value [1] is reported as −1.07 and the “Mouse brain Log 2 Ck1 inhibitor: Centrosomal protein of 170 kDa” value [1] is reported as −0.51. The “Mouse brain Log 2 Ck1 inhibitor: Clathrin light chain B” value [1] was 0.50, the Mouse brain Log 2 Ck1 inhibitor: Egl nine homolog 1 [1] was -0.73 and the “Mouse brain Log 2 Ck1 inhibitor: Guanine nucleotide-binding protein G(q) subunit alpha” value [1] was 0.62. For the same compound, the “Mouse brain Log 2 Ck1 inhibitor: Lambda-crystallin homolog” value [1] was 0.56, the “Mouse brain Log 2 Ck1 inhibitor: Myelin-associated oligodendrocyte basic protein” value [1] was 0.66 and the “Mouse brain Log 2 Ck1 inhibitor: Neutral alpha-glucosidase AB” value [1] was −0.78. For the same compound, the “Mouse brain Log 2 Ck1 inhibitor: OCIA domain-containing protein 1” value [1] was −0.59, the “Mouse brain Log 2 Ck1 inhibitor: Secernin-2” value [1] was −0.52 and the “Mouse brain Log 2 Ck1 inhibitor: Short-chain specific acyl-CoA dehydrogenase, mitochondrial” value [1] was 0.57. For the same compound, the “Mouse brain Log 2 Ck1 inhibitor: Synaptoporin” value [1] was 0.72, the “Mouse brain Log 2 Ck1 inhibitor: Syntaphilin” value [1] was −0.76 and the “Mouse brain Log 2 Ck1 inhibitor: Transmembrane protein 119” value [1] was −0.52. The “Mouse brain Log 2 Ck1 inhibitor: Tubulin alpha chain-like 3” value [1] was 0.67, the “Mouse brain Log 2 Ck1 inhibitor: 2′,3′-cyclic-nucleotide 3′-phosphodiesterase” value [1] was 0.62 and 0.63 and the “Mouse brain Log 2 Ck1 inhibitor: phosphatase 1 regulatory subunit 14A” value [1] was 0.49 and 0.71.

For CNc1c(C(N)=O)c2ccccn2c1C(=O)c1ccc(F)cc1 [PS278-05, 2-Methyl-amino-3-[(4-fluorophenyl)carbonyl]indolizine-1-carboxamide], the “effect of treatment on protein phosphatase 1 regulatory subunit 14A level in mouse brain (in words)” value was “up-regulation; also recorded: altering the concentration or amount; also recorded: upregulated”, the “effect of treatment on 2′,3′-cyclic-nucleotide 3′-phosphodiesterase level in mouse brain (in words)” value was “altering the concentration or amount; also recorded: upregulated” and the “number of human tau peptides significantly (p<0.05) regulated in the hippocampi of treated mice” value (TMHT mice, 8 weeks) was 22.

From patent US12419871B2, “Biomolecules involved in Alzheimer's disease” (ELECTROPHORETICS LIMITED, priority 2015, dated 2025)
